Five compounds from patent US20160122307A1, “PERHYDROQUINOXALINE DERIVATIVES” (DR. AUGUST WOLFF GMBH & CO. KG ARZNEIMITTEL, priority 2013, published 2016) can be followed below.

pEC50: −log10 of the molar value. Like-named read-outs stand apart in the source and are kept apart here. Where only a bound is given, the exact number is not on record here.

The target of test [1] is T1, Human opiate κ receptors (Homo sapiens, UniProt P41145). In words: κ opioid receptor functional assay, [35S]GTPγS binding (assay C). The test is classed as biochemical. The conditions noted are these: for activation at 1 µM: 0.5 h, read-out: % activation functional assay at 1 μM; for pEC50: read-out: GTPγS EC50. Background: GTPγS is a poorly hydrolysed GTP analogue; its binding reports G protein activation.
T1 sequence (P41145 whole entry): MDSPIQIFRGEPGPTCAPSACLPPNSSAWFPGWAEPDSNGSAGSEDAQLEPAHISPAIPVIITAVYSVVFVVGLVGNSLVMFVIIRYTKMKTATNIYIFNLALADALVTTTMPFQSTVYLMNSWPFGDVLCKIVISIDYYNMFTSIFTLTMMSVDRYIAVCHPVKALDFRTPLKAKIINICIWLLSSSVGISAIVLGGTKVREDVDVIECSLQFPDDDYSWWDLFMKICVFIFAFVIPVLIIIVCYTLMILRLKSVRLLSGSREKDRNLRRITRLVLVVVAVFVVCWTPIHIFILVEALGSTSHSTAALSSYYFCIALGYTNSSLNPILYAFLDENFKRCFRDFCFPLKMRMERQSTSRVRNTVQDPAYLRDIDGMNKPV

In test [2] the test system is arachidonic acid-induced ear inflammation. It counts as in vivo, mice.
Test [3] deals with chloroquine-induced scratching. Kind of test: Effects on chloroquine-induced scratching (assay L). The test is classed as in vivo. The conditions noted are these: intrathecal injection, mice. The method, then: L. Effects on Chloroquine-Induced Scratching
Compounds are intrathecally injected in a volume of 5 μl, 10 min before the i.d. injection of chloroquine (100 μg/10 μl) in the rostral back. Following the i.d. cheek injection, mice are placed in an arena with a clear glass floor and videotaped from beneath for 30 min. Videotapes are reviewed by blinded investigators, who count the number of hindlimb scratch bouts.

Test [4] concerns chronic oxazolone-induced ear inflammation. Kind of test: In vivo model of chronic oxazolone-induced ear inflammation (assay E). Details: species or system mice. As for the experimental part:
E. In Vivo Model of Chronic Oxazolone-Induced Ear Inflammation
Mice are challenged several times with oxazolone following an initial sensitization. Ear thickness is measured daily during the treatment period with topical application of the test compound (see e.g. Ottosen E. R. J. Med. Chem. 2003; 46: 5651-5662). At the end of the study ear weight is determined Ears are characterized histologically and by immunofluorescence. Gene expression was quantified (RT-qPCR).

The test system of a further test is DSS-induced colitis. In words: DSS-induced colitis in mice (assay K). It counts as in vivo, C57BL/6 mice. The method, then: K. DSS-Induced Colitis in Mice
Colitis is induced by treatment of C57BL/6 mice with 2.5% dextran sulfate (DSS) in the drinking water for 7 days. Mice are treated with the test item. Weight is monitored daily. At day 8 mice are scarified. A haemocult test is performed. The size of the colon is measured. Colitis is determined using a scoring system in H&E stains.

The next test deals with vasculitis. Kind of test: Vasculitis model in mice, LPS/TNF-α (assay I). The test is classed as in vivo, C57BL/6 mice. The note with it: dose dependent. The method, then:
I. Vasculitis Model in Mice
C57BL/6 mice receive an intradermal injection of LPS. On the following day vasculitis is induced by intradermal injection of TNF-α. In addition Evan's blue is injected. 24 hours following the injection of TNF-α mice are scarified. Ear thickness is measured and the degree of vasculitis is assessed by counting petechiae. The content of Evan's blue in the ear tissue is a marker for vascular permeability. Ears are analyzed by histology, FACS and RT-qPCR.

The subject of test [5] is Imiquimod-induced psoriasis. In words: Imiquimod-induced psoriasis in mice (assay J). The note with it: s.c. or i.v. The test is classed as in vivo, Balb/c mice. As for the experimental part:
J. Imiquimod-Induced Psoriasis in Mice
Psoriasis in Balb/c mice is induced by daily application of topical Imiquimod for 8 days. Animal are treated with the test items (topical or systemically). Scratching was monitored. On day 9 the skin phenotype is characterized. Skin is analyzed histologically. Lymph nodes are analyzed by flow cytometry and RT-qPCR.

In test [6] the test system is UVB-induced inflammatory pain. Kind of test: UVB-induced inflammatory pain in rats (assay H). The test is classed as in vivo, Sprague-Dawley rats. The note with it: s.c. The method, then: H. UVB-Induced Inflammatory Pain In Rats
Male, Sprague-Dawley rats receive a single exposure of UVB radiation to the left hind paw. Mechanical hyperalgesia is assessed using a digital Randall-Selitto device (dRS). Thermal hyperalgesia is measured using a plantar test apparatus (see e.g. Davies S. L. J. Neurosci. Methods 2005; 148:161-166, Bishop T. Pain 2007; 131:70-82 and Graham I. J. Invest. Dermatol. 2004; 122:183-189).

Test [7] has as its system acetic acid-induced writhing. In words: Acetic acid-induced writhing assay in mice (assay G). The note with it: s.c. It counts as in vivo. The method, then: G. Acetic Acid-Induced Writhing Assay in Mice
Analgesic activity against visceral or chemical pain is assessed by application of the test compound prior to application of an i.p. injection of acetic acid. The number of writhing responses that occur in response to acetic acid are counted (see e.g. Barber A. Med. Res. Rev. 1992; 12:525-62 and Ramabadran K. Pharm. Res. 1986,3:263-270).
(In general: An intraperitoneal irritant provokes the stretching counted in writhing tests.)

In test [8] the test system is oxazolone delayed type hypersensitivity reaction. In words: In vivo model for pruritus associated with the oxazolone model of a delayed type hypersensitivity reaction (assay D). Also noted: species or system mice. The method, then: D. In Vivo Model for Pruritus Associated with the Oxazolone Model of a Delayed Type Hypersensitivity Reaction
Scratching activity in mice is measured after topical application of the test compound.

Test [9] addresses T1, Human opiate κ receptors. The test is classed as binding. Details: expressed in transfected cells; host or cells: HEK-293 cell membranes.
[10] abbreviates: topical, versus vehicle control.

Take `COC(=O)c1ccc(C(=O)N2CCN(C(=O)Cc3ccc(Cl)c(Cl)c3)C3C(N4CCCC4)CCCC32)cc1` (racemic) [Example 81]: the activation at 1 µM at Human opiate κ receptors [1] was determined as 102%. For the same compound, in [2] (setting [10]), the “increase in ear thickness” value is reported as “dose dependently prevented the increase”. The chloroquine-evoked scratching result in [3] is “significantly inhibited”.

With `COC(=O)N1CCN(C(=O)Cc2ccc(Cl)c(Cl)c2)[C@@H]2[C@@H](N3CCCC3)CCC[C@@H]21` [Example 89, (4aR,5S,8aS)-methyl 4-(2-(3,4-dichlorophenyl)acetyl)-5-(pyrrolidin-1-yl)octahydroquinoxaline-1(2H)-carboxylate], the “inflammatory infiltrate (CD117+ mast cells and Gr-1+ neutrophils)” value in test [4] (immunohistochemistry) is “dose dependent reduction”. For the same compound, the ear thickness entry in [4] (mice, topical, compared to vehicle control) is reported as “dose dependent decreased”. The “epidermal thickness, inflammatory infiltrate and epidermal oedema (histology)” value in test [4] (semi-quantitative analysis) was “reduction”. Further, in the test on DSS-induced colitis (compared to vehicle control), the weight loss entry is recorded as “decreased weight loss”. Also, in the test with DSS-induced colitis (mouse, in vivo), the “reduction in colon size induced by DSS” value is “normalized”. In addition, in the test on vasculitis, the ear thickness result is “reduction”, the “inflammatory infiltrate (histology)” value was “reduced inflammatory infiltrate” and the number of petechiae entry is “reduced number”. On Human opiate κ receptors [1], the “% activation functional assay at 1 μM” value turned out to be 100% and the activation at 1 µM turned out to be 107%. For the same compound, in [5], the scratch numbers entry is given as “lower”. In test [5] (compared to vehicle control), the “size of the rete ridges” value is given as “decreased size”. Besides, in test [2] (mouse, in vivo, sc), the “increase in ear thickness” value is reported as “prevented the increase” and the scratching activity entry is recorded as “significantly reduced”. In addition, the thermal hyperalgesia entry in [6] is “significant, dose dependent reduction”. The “number of writhing responses” value in test [7] is “significant, dose dependent reduction”. In addition, in [8] (mice, topical), the “number of scratch events” value is reported as “significantly reduced”. Also, in [8] (mice, topical, compared to vehicle treated animals), the ear thickness entry was “accelerated decrease”. Further, the “epidermal thickness, inflammatory infiltrate and epidermal oedema (histology)” value in test [8] (semi-quantitative analysis) is “reduction”.

One may read the pEC50 as the EC50 on a negative log10 scale, so that one unit is a factor of ten. In the case of `COC(=O)c1ccc(C(=O)N2CCN(C(=O)Cc3ccc(Cl)c(Cl)c3)[C@@H]3[C@@H](N4CCCC4)CCC[C@@H]32)cc1.Cl` [Example 114], on Human opiate κ receptors [1], the “% activation functional assay at 1 μM” value came to 93% and the pEC50 is 7.00 to 8.00. Besides, in test [2] (setting [10]), the “increase in ear thickness” value is on record as “dose dependently prevented the increase”. The chloroquine-evoked scratching result in [3] is given as “significantly inhibited”.

Take `CS(=O)(=O)N1CCN(C(=O)Cc2ccc(F)c(Cl)c2)C2C(N3CCC(O)C3)CCCC21.Cl` (stereo not shown) [Example 125]: the “% binding at 100 nM” value at Human opiate κ receptors [9] amounted to 80%. At Human opiate κ receptors [1], the “% activation functional assay at 1 μM” value is 99% and the pEC50 is greater than 8.00. Further, the “increase in ear thickness” value in [2] (setting [10]) was “dose dependently prevented the increase”.

As for `CNC(=O)C(=O)N1CCN(C(=O)Cc2ccc(Cl)c(Cl)c2)[C@@H]2[C@@H](N3CC[C@H](O)C3)CCC[C@@H]21` [Example 145], the “% binding at 100 nM” value at Human opiate κ receptors [9] was 62%. Also, on Human opiate κ receptors [1], the “% activation functional assay at 1 μM” value came out at 103% and the pEC50 is 7.00 to 8.00. Moreover, in test [2] (setting [10]), the “increase in ear thickness” value was “dose dependently prevented the increase”.
